In patent publication US20040121936A1, “Composition” (Colgate-Palmolive Company, priority 2001, published 2004):
Entries after “also recorded” stand apart in the source; their conditions may differ.

Experiments:
bacteria = assay: antibacterial efficacy by cup scrub method on humans against the composition without TCC; assay type: in vivo
Protocol: Using the formulation of Example 1 or Example 2 but with varying amounts of TCC, the amide wherein R is cocoyl, p is 2 and n is 1, and the alcohol wherein R′ is lauryl and q is 7, antibacterial efficacy is measured using a cup scrub method on humans against the composition without TCC.

[1] = stability of TCC in body cleansing composition (precipitate/crystals on storage); assay type: physicochemical; settings: for Comments (precipitate/crystals of TCC): 0.15% TCC in body cleansing composition
Excerpt: Further work on the usefulness of this invention may be seen in the stability data of Example 5. TCC at 0.15% was incorporated in a body cleansing composition of (which may also include the types described above). using Promidium CO alone and in combination with Laureth-7.

Molecule	log reduction of bacteria (bacteria; TCC in the compositions, measured against a composition without TCC)	Comments (precipitate/crystals of TCC) ([1]; Promidium CO 0.675%, Laureth-7 0.675%)	Comments (precipitate/crystals of TCC) ([1]; Promidium CO 3.0%, Laureth-7 0.0%)	time for which no precipitate or crystals were observed ([1]; body cleansing composition with combination of Promidium CO and Laureth-7) [weeks]	effect of presence on antibacterial efficacy (bacteria; presence of Promidium Co and/or laureth-7 in the composition)
O=C(Nc1ccc(Cl)cc1)Nc1ccc(Cl)c(Cl)c1 [TCC, 3,4,4′-trichlorocarbanilide]	greater than 1 log	no precipitate or crystals were observed; also recorded: No Precipitate or crystals even	precipitate/crystals of TCC were observed at the bottom of the container after 4-5 weeks; also recorded: Precipitate/Crystals in 4-5 Weeks	≥ 13	–
PPG-2 hydroxyethyl cocoamide [Promidium CO]	–	–	–	–	does not significantly affect antibacterial efficacy
